Measured values taken from patent publication US11299473B2, “Benzimidazole and indole compounds and uses thereof” (Incyte Corporation, priority 2018, dated 2022).

Molecular target: active HPK1 (SignalChem M23-11G) (Homo sapiens (Human), UniProt Q92918)
Test: HPK1 Kinase Binding Assay
Conditions: LanthaScreen tracer 222 / Eu-Anti GST antibody, one hour incubation at 25° C.
Description: A stock solution of 1 mM test compound was prepared in DMSO. The compound plate was prepared by 3-fold and 11-point serial dilutions. 0.1 μL of the compound in DMSO was transferred from the compound plate to the white 384 well polystyrene plates. The assay buffer contained 50 mM HEPES, pH 7.5, 0.01% Tween-20, 5 mM MgCl2, 0.01% BSA, and 5 mM DTT. 5 μL of 4 nM active HPK1 (SignalChem M23-11G) prepared in the buffer was added to the plate. The enzyme concentration given was based on the given stock concentration reported by the vender. 5 μl of 18 nM tracer 222 (ThermoFisher PV6121) and 4 nM LanthaScreen Eu-Anti GST antibody (ThermoFisher PV5595) were added. After one hour incubation at 25° C., the plates were read on a PHERAstar FS plate reader (BMG Labtech). Ki values were determined.

Sequence of active HPK1 (SignalChem M23-11G) (Q92918 1-346 limits assumed): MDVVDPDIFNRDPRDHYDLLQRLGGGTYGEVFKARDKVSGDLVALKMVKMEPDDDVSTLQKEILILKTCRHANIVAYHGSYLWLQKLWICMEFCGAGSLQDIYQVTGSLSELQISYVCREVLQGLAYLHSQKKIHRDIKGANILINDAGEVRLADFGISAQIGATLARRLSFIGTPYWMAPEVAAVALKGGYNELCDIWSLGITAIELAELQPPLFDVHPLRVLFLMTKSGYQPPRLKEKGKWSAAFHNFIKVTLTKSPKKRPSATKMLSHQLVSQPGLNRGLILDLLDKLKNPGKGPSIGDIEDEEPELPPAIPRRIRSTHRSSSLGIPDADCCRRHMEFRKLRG

Structure (SMILES) | Ki [µM]
COc1cccc(F)c1-c1nccc(C(=O)Nc2ccc3c(nc(-c4ncccc4F)n3C)c2N2C[C@H](N)C[C@H]2CO)n1 [Example 1, N-(4-((2S,4R)-4-Amino-2-(hydroxymethyl)pyrrolidin-1-yl)-2-(3-fluoropyridin-2-yl)-1-methyl-1H-benzo[d]imidazol-5-yl)-2-(2-fluoro-6-methoxyphenyl)pyrimidine-4-carboxamide] | ≤ 0.1
Cn1c(-c2ncccc2F)nc2c(N3C[C@H](N)C[C@H]3CO)c(NC(=O)c3ccnc(-c4c(F)cccc4F)n3)ccc21 [Example 2, N-(4-((2S,4R)-4-Amino-2-(hydroxymethyl)pyrrolidin-1-yl)-2-(3-fluoropyridin-2-yl)-1-methyl-1H-benzo[d]imidazol-5-yl)-2-(2,6-difluorophenyl)pyrimidine-4-carboxamide] | ≤ 0.1
COc1cccnc1-c1nc2c(N3C[C@H](N)C[C@H]3CO)c(NC(=O)c3ccnc(-c4c(F)cccc4F)n3)ccc2n1C [Example 3, N-(4-((2S,4R)-4-Amino-2-(hydroxymethyl)pyrrolidin-1-yl)-2-(3-methoxypyridin-2-yl)-1-methyl-1H-benzo[d]imidazol-5-yl)-2-(2,6-difluorophenyl)pyrimidine-4-carboxamide] | ≤ 0.1
Cn1c(-c2ccccc2C#N)nc2c(N3C[C@H](N)C[C@H]3CO)c(NC(=O)c3ccnc(-c4c(F)cccc4F)n3)ccc21 [Example 4, N-(4-((2S,4R)-4-Amino-2-(hydroxymethyl)pyrrolidin-1-yl)-2-(2-cyanophenyl)-1-methyl-1H-benzo[d]imidazol-5-yl)-2-(2,6-difluorophenyl)pyrimidine-4-carboxamide] | ≤ 0.1
N#Cc1ccccc1-c1nc2c(N3C[C@H](N)C[C@H]3CO)c(NC(=O)c3ccnc(-c4c(F)cccc4F)n3)ccc2n1C1CC1 [Example 5, N-(4-((2S,4R)-4-amino-2-(hydroxymethyl)pyrrolidin-1-yl)-2-(2-cyanophenyl)-1-cyclopropyl-1H-benzo[d]imidazol-5-yl)-2-(2,6-difluorophenyl)pyrimidine-4-carboxamide] | ≤ 0.1
CN(c1c(NC(=O)c2ccnc(-c3c(F)cccc3F)n2)ccc2c1nc(-c1c(F)cncc1F)n2C)[C@@H]1CCCNC1 [Example 6, (R)-2-(2,6-Difluorophenyl)-N-(2-(3,5-difluoropyridin-4-yl)-1-methyl-4-(methyl(piperidin-3-yl)amino)-1H-benzo[d]imidazol-5-yl)pyrimidine-4-carboxamide] | ≤ 0.1
Cn1c(-c2ccncc2F)nc2c(N3C[C@H](N)C[C@H]3CO)c(NC(=O)c3ccnc(-c4c(F)cccc4F)n3)ccc21 [Example 7, N-(4-((2S,4R)-4-Amino-2-(hydroxymethyl)pyrrolidin-1-yl)-2-(3-fluoropyridin-4-yl)-1-methyl-1H-benzo[d]imidazol-5-yl)-2-(2,6-difluorophenyl)pyrimidine-4-carboxamide] | ≤ 0.1
COc1cccc(F)c1-c1nccc(C(=O)Nc2ccc3c(nc(-c4ccncc4F)n3C)c2N2CCOC[C@@H]2CN)n1 [Example 8, (S)—N-(4-(3-(Aminomethyl)morpholino)-2-(3-fluoropyridin-4-yl)-1-methyl-1H-benzo[d]imidazol-5-yl)-2-(2-fluoro-6-methoxyphenyl)pyrimidine-4-carboxamide] | ≤ 0.1
Cn1c(-c2ccncc2F)nc2c(N3CCNC[C@@H]3CO)c(NC(=O)c3ccnc(-c4c(F)cccc4F)n3)ccc21 [Example 9, (R)-2-(2,6-Difluorophenyl)-N-(2-(3-fluoropyridin-4-yl)-4-(2-(hydroxymethyl)piperazin-1-yl)-1-methyl-1H-benzo[d]imidazol-5-yl)pyrimidine-4-carboxamide] | ≤ 0.1
COc1cccc(F)c1-c1nccc(C(=O)Nc2ccc3c(nc(-c4ccncc4F)n3C)c2N2C[C@@H]3C[C@H]2CN3)n1 [Example 10, N-(4-((1S,4S)-2,5-Diazabicyclo[2.2.1]heptan-2-yl)-2-(3-fluoropyridin-4-yl)-1-methyl-1H-benzo[d]imidazol-5-yl)-2-(2-fluoro-6-methoxyphenyl)pyrimidine-4-carboxamide] | ≤ 0.1
COc1cccc(F)c1-c1nccc(C(=O)Nc2ccc3c(nc(-c4ccncc4F)n3C)c2N2C[C@@H]3C[C@H]2CO3)n1 [Example 11, N-(4-((1S,4S)-2-Oxa-5-azabicyclo[2.2.1]heptan-5-yl)-2-(3-fluoropyridin-4-yl)-1-methyl-1H-benzo[d]imidazol-5-yl)-2-(2-fluoro-6-methoxyphenyl)pyrimidine-4-carboxamide] | ≤ 0.1
COc1cccc(F)c1-c1nccc(C(=O)Nc2ccc3c(nc(C)n3C)c2N2CCC[C@H]2CN)n1 [Example 12, (S)—N-(4-(2-(Aminomethyl)pyrrolidin-1-yl)-1,2-dimethyl-1H-benzo[d]imidazol-5-yl)-2-(2-fluoro-6-methoxyphenyl)pyrimidine-4-carboxamide] | ≤ 0.1
COc1cccc(F)c1-c1nccc(C(=O)Nc2ccc3c(nc(C)n3C)c2N2CCC[C@@H]2CN)n1 [Example 13, (R)—N-(4-(2-(Aminomethyl)pyrrolidin-1-yl)-1,2-dimethyl-1H-benzo[d]imidazol-5-yl)-2-(2-fluoro-6-methoxyphenyl)pyrimidine-4-carboxamide] | ≤ 0.1
COc1cccc(F)c1-c1nccc(C(=O)Nc2ccc3c(nc(C)n3C)c2N2CCC[C@@H]2CO)n1 [Example 14, (R)-2-(2-Fluoro-6-methoxyphenyl)-N-(4-(2-(hydroxymethyl)pyrrolidin-1-yl)-1,2-dimethyl-1H-benzo[d]imidazol-5-yl)pyrimidine-4-carboxamide] | ≤ 0.1
COc1cccc(F)c1-c1nccc(C(=O)Nc2ccc3c(nc(C)n3C)c2N2C[C@H](N)C[C@H]2CO)n1 [Example 15, N-(4-((2S,4R)-4-Amino-2-(hydroxymethyl)pyrrolidin-1-yl)-1,2-dimethyl-1H-benzo[d]imidazol-5-yl)-2-(2-fluoro-6-methoxyphenyl)pyrimidine-4-carboxamide] | ≤ 0.1
COc1cccc(F)c1-c1nccc(C(=O)Nc2ccc3c(nc(C)n3C)c2N2C[C@H]3C[C@@H]2CN3)n1 [Example 16, N-(4-((1R,4R)-2,5-Diazabicyclo[2.2.1]heptan-2-yl)-1,2-dimethyl-1H-benzo[d]imidazol-5-yl)-2-(2-fluoro-6-methoxyphenyl)pyrimidine-4-carboxamide] | ≤ 0.1
COc1cccc(F)c1-c1nccc(C(=O)Nc2ccc3c(nc(C(C)C)n3C)c2N2C[C@@H]3C[C@H]2CN3)n1 [Example 17, N-(4-((1S,4S)-2,5-Diazabicyclo[2.2.1]heptan-2-yl)-2-isopropyl-1-methyl-1H-benzo[d]imidazol-5-yl)-2-(2-fluoro-6-methoxyphenyl)pyrimidine-4-carboxamide] | ≤ 0.1
COc1cccc(F)c1-c1nccc(C(=O)Nc2ccc3c(nc(-c4ccncc4F)n3C)c2N2CCC[C@H]2CN)n1 [Example 18, (S)—N-(4-(2-(Aminomethyl)pyrrolidin-1-yl)-2-(3-fluoropyridin-4-yl)-1-methyl-1H-benzo[d]imidazol-5-yl)-2-(2-fluoro-6-methoxyphenyl)pyrimidine-4-carboxamide] | ≤ 0.1
COc1cccc(F)c1-c1nccc(C(=O)Nc2ccc3c(nc(-c4ccnn4C)n3C)c2N2CCC[C@H]2CN)n1 [Example 19, (S)—N-(4-(2-(Aminomethyl)pyrrolidin-1-yl)-1-methyl-2-(1-methyl-1H-pyrazol-5-yl)-1H-benzo[d]imidazol-5-yl)-2-(2-fluoro-6-methoxyphenyl)pyrimidine-4-carboxamide] | ≤ 0.1
COc1cccc(F)c1-c1nccc(C(=O)Nc2ccc3c(nc(C4CCOCC4)n3C)c2N2CCC[C@H]2CN)n1 [Example 20, (S)—N-(4-(2-(Aminomethyl)pyrrolidin-1-yl)-1-methyl-2-(tetrahydro-2H-pyran-4-yl)-1H-benzo[d]imidazol-5-yl)-2-(2-fluoro-6-methoxyphenyl)pyrimidine-4-carboxamide] | ≤ 0.1
COCCn1c(C)nc2c(N3CCC[C@H]3CN)c(NC(=O)c3ccnc(-c4c(F)cccc4OC)n3)ccc21 [Example 21, (S)—N-(4-(2-(Aminomethyl)pyrrolidin-1-yl)-1-(2-methoxyethyl)-2-methyl-1H-benzo[d]imidazol-5-yl)-2-(2-fluoro-6-methoxyphenyl)pyrimidine-4-carboxamide] | ≤ 0.1
COC[C@@H](C)n1c(C)nc2c(N3CCC[C@H]3CN)c(NC(=O)c3ccnc(-c4c(F)cccc4OC)n3)ccc21 [Example 22, N-(4-((S)-2-(Aminomethyl)pyrrolidin-1-yl)-1-((R)-1-methoxypropan-2-yl)-2-methyl-1H-benzo[d]imidazol-5-yl)-2-(2-fluoro-6-methoxyphenyl)pyrimidine-4-carboxamide] | ≤ 0.1
COc1cccc(F)c1-c1nccc(C(=O)Nc2ccc3c(nc(C)n3CC(C)(C)OC)c2N2CCC[C@H]2CN)n1 [Example 23, (S)—N-(4-(2-(Aminomethyl)pyrrolidin-1-yl)-1-(2-methoxy-2-methylpropyl)-2-methyl-1H-benzo[d]imidazol-5-yl)-2-(2-fluoro-6-methoxyphenyl)pyrimidine-4-carboxamide] | ≤ 0.1
COc1cccc(F)c1-c1nccc(C(=O)Nc2ccc3c(nc(C)n3[C@H]3CCOC3)c2N2CCC[C@H]2CN)n1 [Example 24, N-(4-((S)-2-(Aminomethyl)pyrrolidin-1-yl)-2-methyl-1-((S)-tetrahydrofuran-3-yl)-1H-benzo[d]imidazol-5-yl)-2-(2-fluoro-6-methoxyphenyl)pyrimidine-4-carboxamide] | ≤ 0.1
COCc1nc2c(N3CCC[C@H]3CN)c(NC(=O)c3ccnc(-c4c(F)cccc4OC)n3)ccc2n1C [Example 25, (S)—N-(4-(2-(Aminomethyl)pyrrolidin-1-yl)-2-(methoxymethyl)-1-methyl-1H-benzo[d]imidazol-5-yl)-2-(2-fluoro-6-methoxyphenyl)pyrimidine-4-carboxamide] | ≤ 0.1
